Test results published in patent publication US10449348B2, “Devices and methods for enhancing the topical application of a benefit agent” (Johnson & Johnson Consumer Inc., priority 2015, dated 2019).

Assay: In vitro skin permeation study, Franz diffusion cell, passive diffusion or sonophoresis
Assay type: in vitro ADME, human
Source text: The experimental setup to run sonophoresis (ultrasound) studies with Franz cell diffusion cells consisted of a custom-built universal generator capable of driving ultrasonic transducers in the 20 kHz-2 MHz range with electronic power up to 60 W (Voltage+/−30V, Current: 2 A, duty cycle 50%) with a square waveform. The real power delivered to the transducer depended on the specific experimental conditions and is specified for each experiment. The driving waveform was delivered to the transducer through a coaxial cable having a BNC connector at one end and a custom non-coaxial connector at the transducer end.
The transducer was piezoelectric and had either a disk shaped form (either 20 or 25 mm in diameter) or a rectangular shape 10×20 mm^2). The thickness of the transducer depended on its fundamental frequency being inversely proportional with it. In order to prevent the liquid or the gel from perturbing the electrical connection, each transducer was encapsulated in a plastic case leaving only one side of the transducer exposed to the topical composition. The case was made out of a rigid plastic and the transducers were sealed with silicone adhesive to enable them to oscilalte more or less freely. The case also enabled the electrical connections to be isolated from the topical composition.
For sonophoresis experiments where the ultrasonic wave energy was delivered perpendicular to the skin, disk-shaped transducers were used in the encapsulation setup described above. For the angled ultrasound application the case encapsulating the ultrasonic transducer was assembled in a hinged configuration, enabling angles between 15 and 90 degrees (perpendicular). Note: an angle of 0 degrees would send the ultrasonic wave parallel with the skin surface.
In vitro skin permeation studies on 5% Ibuprofen gel compositions without ultrasound (passive diffusion), or facilitated by the application of ultrasound (sonophoresis), through human cadaver skin were performed as follows:
A skin penetration study evaluated the penetration of ibuprofen through the human skin for the inventive sample prepared as disclosed in Example 1. A commercial ibuprofen gel product, IBULEVE Ibuprofen Gel (by DDD ltd, Watford, Herts, WD18 7JJ, UK) was used as a benchmark, which contains 5% W/W ibuprofen, also IMS (Industrial Methylated Spirits), carbomer, propylene glycol, diethylamine and purified water according to the product label on its package. A well-known Franz diffusion cell method (taught in US20020006418 A1 which is hereby incorporated by reference) was used. […] A magnetic stirrer bar was added in the […]. The liquid receptor was filled with Phosphate-buffered saline (PBS) solution. Air bubbles in the […] were removed. The system was thermostated at 37° C. above a magnetic stirrer to ensure the homogeneity of the liquid receptor during the experiment. A human cadaver skin sample from a commercial tissue bank (Ohio Valley Tissue and Skin Center, Cincinnati, Ohio, dermatomed to approximately 0.4 mm) was cut to fit the glass diffusion cell and the skin was mounted on the Franz cell.
For the diffusion cells designated to be tested for passive diffusion, a test gel sample of 0.2 ml was applied on the skin surface. For the diffusion cells designated to test for sonophoresis, additional test sample (2-5 ml) was added in order to assure the entire, or at least a large portion, of the ultrasonic transducer tip was immersed by the test gel during the ultrasound treatment. The excess gel was promptly removed from the donor cell after the ultrasound treatment so that the remaining test gel was approximately 0.2 ml.
Ultrasound treatments were carried out with the following test conditions: • a) Conventional ultrasound treatment with 90 degree angle (°) between the ultrasound direction and the skin surface; • b) Angled Ultrasound treatment with less than 90 degree angle between the ultrasound direction and the skin surface. […]

- permeation enhancement factor (15 degree UT sonophoresis vs without ultrasound, 6th hour): approximately 3.0 fold
- permeation enhancement factor (15 degree UT sonophoresis vs without ultrasound, 24th hour): approximately 3.0 fold
- ibuprofen permeation through the human skin versus no ultrasound (15 degree ultrasound treatment): significantly enhanced
- ibuprofen permeation through the human skin versus no ultrasound (45 degree angled sonophoresis): significantly enhanced
- permeation enhancement factor (60 degree UT sonophoresis vs without ultrasound, 6th hour): approximately 2.9 fold
- permeation enhancement factor (60 degree UT sonophoresis vs without ultrasound, 24th hour): ~2.0 fold
- ibuprofen permeation through the human skin versus no ultrasound (60 degree angled sonophoresis): significantly enhanced
- permeation enhancement factor (90 degree UT sonophoresis vs without ultrasound, 6th hour): approximately 2.3 fold
- permeation enhancement factor (90 degree UT sonophoresis vs without ultrasound, 24th hour): ~2.0 fold
- ibuprofen permeation through the human skin versus no ultrasound (90 degree ultrasound treatment): significantly enhanced
Structure (SMILES): CC(C)Cc1ccc(C(C)C(=O)O)cc1 (stereo not shown) [ibuprofen]
